From paper PMC9068870, “Modulation of Morphine Analgesia, Antinociceptive Tolerance, and Mu-Opioid Receptor Binding by the Cannabinoid CB2 Receptor Agonist O-1966” (Frontiers in Pharmacology, 2022)

What was measured:
[1] = molecular target: T1, rat mu-opioid receptor (rMOR) (Rattus norvegicus, UniProt P33535); test: […]GTPγS binding, CHO-rMOR membranes; assay type: biochemical; settings: O-1966 10 min before 0.5 µM morphine; 10 µM GDP, 50 mM HEPES, 100 mM NaCl, 5 mM MgCl2, 30 °C, 1 h; negative allosteric mode suggested only
T1 construct: gene Oprm1; stably expressed in CHO cells (CHO-rMOR); cell membranes

[2] = molecular target: T1, rat mu-opioid receptor (rMOR); test: competition with [3H]DAMGO, filtration, CHO-rMOR membranes; assay type: binding

T1 sequence (P33535 whole entry): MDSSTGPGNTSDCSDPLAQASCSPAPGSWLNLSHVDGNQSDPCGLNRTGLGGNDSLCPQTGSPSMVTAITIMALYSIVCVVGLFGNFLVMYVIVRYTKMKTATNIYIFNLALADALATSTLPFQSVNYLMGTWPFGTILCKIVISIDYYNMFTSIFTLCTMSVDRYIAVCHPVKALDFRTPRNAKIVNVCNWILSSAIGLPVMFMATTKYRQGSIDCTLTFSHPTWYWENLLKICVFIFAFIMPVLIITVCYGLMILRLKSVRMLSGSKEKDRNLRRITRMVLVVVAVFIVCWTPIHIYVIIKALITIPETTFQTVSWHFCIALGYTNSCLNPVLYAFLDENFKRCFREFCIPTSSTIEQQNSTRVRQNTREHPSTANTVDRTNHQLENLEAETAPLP

CCCCCCC(C)(C)c1cc(OC)c(C2(O)CCCC(C)C2)c(OC)c1 (centres unmarked) [O-1966]
% reduction of morphine response at 10 μM [1]: 20% | Ki [2]: 3.04 µM
